Reference: ChEMBL document CHEMBL1147942, “Dual M3 antagonists-PDE4 inhibitors. Part 2: Synthesis and SAR of 3-substituted azetidinyl derivatives” (Bioorg Med Chem Lett, 2007)
Activity calls are given as the source filed them. The calls are words filed in the database; no cut-off is given here.

Key:
[1] = target: Muscarinic acetylcholine receptor M3 (Homo sapiens, UniProt P20309); test: Displacement of [3H]N-methylscopolamine from human recombinant M3 muscarinic receptor expressed in CHO cell membrane; type: cell membranes
[2] = target: T1, Phosphodiesterase 4 (Homo sapiens, UniProt P27815+Q08499+Q07343+Q08493); test: Inhibition of PDE4 in U937 cells; type: cell-based; conditions: u-937
[3] = Dissociation constant, pKa of the compound; type: physicochemical
[4] = target: T1, Phosphodiesterase 4; test: Inhibition of PDE4 in U937 cells at 10 uM; type: cell-based; conditions: U-937
[5] = target: Muscarinic acetylcholine receptor M3 (Cavia porcellus, UniProt Q8VH26); test: Activity at M3 muscarinic receptor in guinea pig assessed as effect on carbachol-induced trachea contraction
[6] = target: T1, Phosphodiesterase 4; test: Inhibition of PDE4 in U937 cells at high-affinity rolipram binding state; type: cell-based; conditions: u-937
[7] = Inhibition of fMLP-induced elastase release from human PMN cells; type: functional, cell-based
[8] = species: Cavia porcellus; conditions: Trachea
Description: Activity at PDE4 in guinea pig assessed as effect on LTD4-induced trachea contraction

[9] = species: Mus musculus; test: Inhibition of PMN cells in BALB/c mouse at 10 mg/ml, nose-only aerosol for 15 mins; type: functional, organism-based
[10] = species: Mus musculus; test: Inhibition of BALF cells in BALB/c mouse at 10 mg/ml, nose-only aerosol for 15 mins; type: functional, organism-based
[11] = species: Mus musculus; test: Inhibition of mKC cells in BALB/c mouse at 10 mg/ml, nose-only aerosol for 15 mins; type: functional, organism-based

Sequence of Muscarinic acetylcholine receptor M3 (Homo sapiens, UniProt P20309) (P20309 whole entry): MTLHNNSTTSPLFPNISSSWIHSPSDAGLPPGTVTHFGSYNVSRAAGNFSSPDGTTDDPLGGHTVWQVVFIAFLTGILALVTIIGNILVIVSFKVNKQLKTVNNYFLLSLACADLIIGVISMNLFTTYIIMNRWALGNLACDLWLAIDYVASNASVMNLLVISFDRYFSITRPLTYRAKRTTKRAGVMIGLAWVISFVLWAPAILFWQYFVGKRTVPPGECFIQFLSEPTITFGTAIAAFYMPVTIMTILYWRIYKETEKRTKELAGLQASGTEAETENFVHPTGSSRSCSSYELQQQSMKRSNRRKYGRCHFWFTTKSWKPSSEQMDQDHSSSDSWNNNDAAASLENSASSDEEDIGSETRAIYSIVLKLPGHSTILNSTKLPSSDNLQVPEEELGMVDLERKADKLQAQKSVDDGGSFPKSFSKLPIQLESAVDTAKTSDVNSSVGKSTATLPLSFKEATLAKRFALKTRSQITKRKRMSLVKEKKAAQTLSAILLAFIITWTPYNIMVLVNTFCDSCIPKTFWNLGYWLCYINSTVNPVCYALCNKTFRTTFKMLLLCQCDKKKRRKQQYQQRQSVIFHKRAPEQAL
Sequence of Muscarinic acetylcholine receptor M3 (Cavia porcellus, UniProt Q8VH26) (Q8VH26 whole entry): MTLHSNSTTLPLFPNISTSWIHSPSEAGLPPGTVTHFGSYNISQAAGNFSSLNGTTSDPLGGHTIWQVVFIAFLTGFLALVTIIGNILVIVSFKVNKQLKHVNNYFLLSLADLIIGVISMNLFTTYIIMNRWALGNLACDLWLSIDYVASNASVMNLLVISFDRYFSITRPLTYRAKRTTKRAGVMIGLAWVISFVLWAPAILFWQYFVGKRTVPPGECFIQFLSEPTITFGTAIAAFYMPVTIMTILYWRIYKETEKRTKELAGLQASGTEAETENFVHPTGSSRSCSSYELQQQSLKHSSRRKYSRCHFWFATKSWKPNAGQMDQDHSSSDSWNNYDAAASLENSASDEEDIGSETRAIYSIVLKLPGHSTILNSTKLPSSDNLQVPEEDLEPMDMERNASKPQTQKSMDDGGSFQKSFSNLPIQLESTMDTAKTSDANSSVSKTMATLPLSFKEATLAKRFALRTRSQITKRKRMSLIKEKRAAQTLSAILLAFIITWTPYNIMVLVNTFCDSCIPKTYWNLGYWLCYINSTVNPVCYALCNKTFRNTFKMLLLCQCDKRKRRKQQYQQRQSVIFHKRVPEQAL

Compound	Ki [1] [µM]	IC50 [2] [µM]	pKa [3]	also measured
Cc1c(N2CCCCCC2)nc(C2CC2)nc1N1CC(=O)C1	0.631	0.5	6.4	
FC1CN(c2cc(N3CCCCCC3)nc(C3CC3)n2)C1	0.501	0.2	6.9	
Cc1c(N2CCCCCC2)nc(C2CC2)nc1N1CC(C)(C)C1	0.032	5	7	
Cc1c(N2CCCCCC2)nc(C2CC2)nc1N1CC(C#N)C1	0.794	1	6.4	
Cc1c(N2CCCCCC2)nc(C2CC2)nc1N1CCCC1	0.0013	3.2		
Cc1c(N2CCCCCC2)nc(C2CC2)nc1N1CC(F)C1	0.2	0.079	6.6	Log IC50 [2]: -7.3; Log Ki [6]: -6; IC50 [7]: 0.38 µM; pD2 [8]: 7.4
Cc1c(NC2CC2)nc(C2CC2)nc1N1CCCCCC1				Activity [9]: Dose-dependent effect; Activity [10]: Dose-dependent effect; Activity [11]: Dose-dependent effect; pD2 [8]: 6.1

More lines, in order of falling Ki [1], values ahead:

Ki [1] [µM]	IC50 [2] [µM]	pKa [3]	Compound	also measured
0.158	0.63	7	Cc1c(N2CCCCCC2)nc(C2CC2)nc1N1CC(O)C1	
0.079			Cc1c(N2CCCCCC2)nc(C2CC2)nc1N1CCCCC1	Activity [4]: inactive
0.079	0.79	7.4	c1c(N2CCCCCC2)nc(C2CC2)nc1N1CCC1	
0.04	4	6.8	COC1CN(c2nc(C3CC3)nc(N3CCCCCC3)c2C)C1	
0.04			Cc1c(N2CCCCCC2)nc(C2CC2)nc1N1CCCCCC1	Activity [4]: inactive
0.02	0.79	8	Cc1c(N2CCCCCC2)nc(C2CC2)nc1N1CC(C)C1	
0.016	0.32	7.1	Cc1c(N2CCCCCC2)nc(C2CC2)nc1N1CCC1	Log IC50 [2]: -6.6; Kb [5]: 1 µM; Log Ki [6]: -5.3; IC50 [7]: 0.19 µM
0.013	2	7.5	CC1CN(c2cc(N3CCCCCC3)nc(C3CC3)n2)C1	
